This assay is described as follows: Inhibition of Src protein tyrosine kinase.

Molecules are shown by their SMILES.

As a reminder, the IC50 is the point on the concentration scale where inhibition reaches its midpoint. A higher IC50 goes with lower potency. Compound `COCCOc1cc2nc3ncnc(Nc4cc(OC)c(Cl)cc4Cl)c3cc2cc1OC` [(2,4-Dichloro-5-methoxy-phenyl)-[7-methoxy-8-(2-methoxy-ethoxy)-pyrimido[4,5-b]quinolin-4-yl]-amine] had an IC50 of over 10 µM.
